Source: patent publication US9512107B2, “Therapeutically active compositions and their methods of use” (Agios Pharmaceuticals, Inc., priority 2012, dated 2016)

Experiments:
IDH2 R140Q = target: T1, IDH2 R140Q (Homo sapiens, UniProt P48735, R140Q); assay: IDH2 R140Q enzymatic assay (cofactor depletion, similar format); format: biochemical; settings: for IC50: read-out: Enz R140Q
T1 sequence (P48735 40-452 R140Q): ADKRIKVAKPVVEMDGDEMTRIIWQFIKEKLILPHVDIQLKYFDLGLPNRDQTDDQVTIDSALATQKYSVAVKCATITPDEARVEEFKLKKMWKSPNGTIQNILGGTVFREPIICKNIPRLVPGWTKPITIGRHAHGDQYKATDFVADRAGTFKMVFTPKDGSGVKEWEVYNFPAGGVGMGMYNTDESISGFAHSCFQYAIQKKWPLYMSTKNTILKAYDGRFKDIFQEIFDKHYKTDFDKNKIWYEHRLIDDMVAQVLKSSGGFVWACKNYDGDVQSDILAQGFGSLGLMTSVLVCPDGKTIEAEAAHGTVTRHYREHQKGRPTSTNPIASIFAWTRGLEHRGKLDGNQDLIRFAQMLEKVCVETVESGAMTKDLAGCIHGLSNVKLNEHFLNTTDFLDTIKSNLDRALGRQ
Experimental: [The source words this procedure for another variant and says it was used here with some conditions changed.] Compounds are assayed for IDH2 R172K inhibitory activity through a cofactor depletion assay. […] The reaction is terminated by the addition of a second enzyme, diaphorase, and a corresponding substrate, resazurin. Diaphorase reduces resazurin to the highly fluorescent resorufin with the concomitant oxidation of NADPH to NADP, both halting the IDH2 reaction by depleting the available cofactor pool and facilitating quantitation of the amount of cofactor remaining after a specific time period through quantitative production of an easily detected fluorophore.
The test compound is then incubated for one hour at room temperature with the enzyme; before starting the IDH2 reaction with the addition of 10 μl of substrate mix containing 50 μM NADPH and 6.3 mM α-KG in the buffer described above. After a further one hour of incubation at room temperature, the reaction is halted and the remaining NADPH measured through conversion of resazurin to resorufin by the addition of 25 μl Stop Mix (36 μg/ml diaphorase enzyme and 60 μM resazurin; in buffer).

[1] = test system: U87MG pLVX-IDH2 R140Q-neo cells; assay: U87MG pLVX-IDH2 R140Q-neo cell based assay, 2-HG in media by LC-MS at 48 hours; settings: for IC50: Homo sapiens, U-87 MG
Experimental: U87MG pLVX-IDH2 R140Q-neo cells are grown in T125 flasks in DMEM containing 10% FBS, 1× penicillin/streptomycin and 500 μg/mL G418. They are harvested by trypsin and seeded into 96 well white bottom plates at a density of 5000 cell/well in 100 μl/well in DMEM with 10% FBS. No cells are plated in columns 1 and 12. Cells are incubated overnight at 37° C. in 5% CO2. The next day compounds are made up at 2× concentration and 100 ul are added to each cell well. The final concentration of DMSO is 0.2% and the DMSO control wells are plated in row G. The plates are then placed in the incubator for 48 hours. At 48 hours, 100 ul of media is removed from each well and analyzed by LC-MS for 2-HG concentrations. The cell plate is placed back in the incubator for another 24 hours. At 72 hours post compound addition, 10 mL/plate of Promega Cell Titer Glo reagent is thawed and mixed. The cell plate is removed from the incubator and allowed to equilibrate to room temperature. Then 100 ul of reagent is added to each well of media. The cell plate is then placed on an orbital shaker for 10 minutes and then allowed to sit at room temperature for 20 minutes. The plate is then read for luminescence with an integration time of 500 ms to determine compound effects on growth inhibition.

Row | SMILES | IC50 (IDH2 R140Q) | IC50 [1] | Enz R140Q (IDH2 R140Q) | Cell R140Q [1]
1 | N#CC1(Nc2nc(Nc3ccncc3)nc(-c3ccccc3)n2)CCC1 [Compound 284, 1-(4-phenyl-6-(pyridin-4-ylamino)-1,3,5-triazin-2-ylamino)cyclobutanecarbonitrile] | 100 to 1000 nM | 100 to 1000 nM | – | –
2 | Cc1cc(Nc2nc(NC(C)C)nc(-c3ccccc3)n2)ccn1 [Compound 288, N^2-isopropyl-N^4-(2-methylpyridin-4-yl)-6-phenyl-1,3,5-triazine-2,4-diamine] | < 100 nM | < 100 nM | – | –
3 | CC(C)Nc1nc(Nc2ccc(Cl)nc2)nc(-c2ccccc2)n1 [Compound 289, N^2-(6-chloropyridin-3-yl)-N^4-isopropyl-6-phenyl-1,3,5-triazine-2,4-diamine] | < 100 nM | 100 to 1000 nM | – | –
4 | CC(C)Nc1nc(Nc2ccccc2)nc(-c2cccc(N)n2)n1 [Compound 290, 6-(6-aminopyridin-2-yl)-N^2-isopropyl-N^4-phenyl-1,3,5-triazine-2,4-diamine] | 100 to 1000 nM | < 100 nM | – | –
5 | CCC(CO)Nc1nc(Nc2ccncc2)nc(-c2ccccc2)n1 (centres unmarked) [Compound 291, 2-(4-phenyl-6-(pyridin-4-ylamino)-1,3,5-triazin-2-ylamino)butan-1-ol] | – | – | No Fit | No Fit
6 | CC(C)Nc1nc(Nc2ccncc2F)nc(-c2ccccc2)n1 [Compound 292, N^2-(3-fluoropyridin-4-yl)-N^4-isopropyl-6-phenyl-1,3,5-triazine-2,4-diamine] | – | – | No Fit | No Fit
7 | CC(C)Nc1nc(Nc2ccnc(N(C)C)c2)nc(-c2ccccc2)n1 [Compound 293, N^2-(2-(dimethylamino)pyridin-4-yl)-N^4-isopropyl-6-phenyl-1,3,5-triazine-2,4-diamine] | < 100 nM | < 100 nM | – | –
8 | OCCNc1nc(Nc2ccncc2)nc(-c2ccccc2)n1 [Compound 294, 2-(4-phenyl-6-(pyridin-4-ylamino)-1,3,5-triazin-2-ylamino)ethanol] | – | – | No Fit | No Fit
9 | c1ccc(-c2nc(Nc3ccncc3)nc(N[C@@H]3C[C@@H]4CC[C@H]3C4)n2)cc1 [Compound 295, N^2-((1S,2R,4R)-bicyclo[2.2.1]heptan-2-yl)-6-phenyl-N^4-(pyridin-4-yl)-1,3,5-triazine-2,4-diamine] | < 100 nM | < 100 nM | – | –
10 | c1ccc(Nc2nc(N[C@@H]3C[C@@H]4CC[C@H]3C4)nc(-c3ccccc3)n2)cc1 [Compound 296, N^2-((1S,2R,4R)-bicyclo[2.2.1]heptan-2-yl)-N^4,6-diphenyl-1,3,5-triazine-2,4-diamine] | 100 to 1000 nM | < 100 nM | – | –
11 | c1ccc(-c2nc(Nc3ccncc3)nc(NC3C4COCC43)n2)cc1 (centres unmarked) [Compound 297, N^2-(3-oxabicyclo[3.1.0]hexan-6-yl)-6-phenyl-N^4-(pyridin-4-yl)-1,3,5-triazine-2,4-diamine] | < 100 nM | < 100 nM | – | –
12 | CC(C)Nc1nc(Nc2ccnc(N3CCOCC3)c2)nc(-c2ccccc2)n1 [Compound 298, N^2-isopropyl-N^4-(2-morpholinopyridin-4-yl)-6-phenyl-1,3,5-triazine-2,4-diamine] | < 100 nM | < 100 nM | – | –
13 | CC(C)Nc1nc(Nc2ccnc(N3CCC3)c2)nc(-c2ccccc2)n1 [Compound 299, N^2-(2-(azetidin-1-yl)pyridin-4-yl)-N^4-isopropyl-6-phenyl-1,3,5-triazine-2,4-diamine] | < 100 nM | 100 to 1000 nM | – | –
14 | c1ccc(-c2nc(NCC3COC3)nc(Nc3ccncc3)n2)cc1 [Compound 300, N^2-(oxetan-3-ylmethyl)-6-phenyl-N^4-(pyridin-4-yl)-1,3,5-triazine-2,4-diamine] | 100 to 1000 nM | 100 to 1000 nM | – | –
15 | CC(C)Nc1cc(Nc2nc(NC(C)C)nc(-c3ccccc3)n2)ccn1 [Compound 301, N^2-isopropyl-N^4-(2-(isopropylamino)pyridin-4-yl)-6-phenyl-1,3,5-triazine-2,4-diamine] | 100 to 1000 nM | < 100 nM | – | –
16 | CNc1cc(Nc2nc(NC(C)C)nc(-c3ccccc3)n2)ccn1 [Compound 302, N^2-isopropyl-N^4-(2-(methylamino)pyridin-4-yl)-6-phenyl-1,3,5-triazine-2,4-diamine] | < 100 nM | 100 to 1000 nM | – | –

Row | SMILES | IC50 (IDH2 R140Q) | IC50 [1] | Enz R140Q (IDH2 R140Q) | Cell R140Q [1]
17 | CNc1ccc(Nc2nc(NC(C)C)nc(-c3ccccc3)n2)cn1 [Compound 303, N^2-isopropyl-N^4-(6-(methylamino)pyridin-3-yl)-6-phenyl-1,3,5-triazine-2,4-diamine] | 1000 to 10000 nM | – | – | No Fit
18 | OC1CCCC(Nc2nc(Nc3ccncc3)nc(-c3ccccc3)n2)C1 (centres unmarked) [Compound 304, 3-(4-phenyl-6-(pyridin-4-ylamino)-1,3,5-triazin-2-ylamino)cyclohexanol] | 1000 to 10000 nM | – | – | No Fit
19 | COC1CC(Nc2nc(Nc3ccncc3)nc(-c3ccccc3)n2)C1 (centres unmarked) [Compound 305, N^2-(3-methoxycyclobutyl)-6-phenyl-N^4-(pyridin-4-yl)-1,3,5-triazine-2,4-diamine] | > 10000 nM | – | – | No Fit
20 | CS(=O)(=O)c1cccc(Nc2nc(NC3CCOCC3)nc(-c3ccccc3)n2)c1 [Compound 306] | 100 to 1000 nM | < 100 nM | – | –
21 | CC(C)Nc1nc(Nc2cnn(C)c2)nc(-c2ccccc2)n1 [Compound 308, N^2-isopropyl-N^4-(1-methyl-1H-pyrazol-4-yl)-6-phenyl-1,3,5-triazine-2,4-diamine] | < 100 nM | 100 to 1000 nM | – | –
22 | CC(C)Nc1nc(Nc2cnoc2)nc(-c2ccccc2)n1 [Compound 309, N^2-isopropyl-N^4-(isoxazol-4-yl)-6-phenyl-1,3,5-triazine-2,4-diamine] | < 100 nM | < 100 nM | – | –
23 | Cc1cc(Nc2nc(NC(C)C)nc(-c3ccccc3)n2)cc(C)n1 [Compound 310, N^2-(2,6-dimethylpyridin-4-yl)-N^4-isopropyl-6-phenyl-1,3,5-triazine-2,4-diamine] | 100 to 1000 nM | < 100 nM | – | –
24 | CC(C)Nc1nc(Nc2ccc(OCC3CC3)nc2)nc(-c2ccccc2)n1 [Compound 311, N^2-(6-(cyclopropylmethoxy)pyridin-3-yl)-N^4-isopropyl-6-phenyl-1,3,5-triazine-2,4-diamine] | 100 to 1000 nM | 100 to 1000 nM | – | –
25 | CC(C)Nc1nc(Nc2ccc(OC(C)C)nc2)nc(-c2ccccc2)n1 [Compound 312, N^2-(6-isopropoxypyridin-3-yl)-N^4-isopropyl-6-phenyl-1,3,5-triazine-2,4-diamine] | 100 to 1000 nM | 1000 to 10000 nM | – | –
26 | CC(C)Nc1nc(Nc2cncs2)nc(-c2ccccc2)n1 [Compound 313, N^2-isopropyl-6-phenyl-N^4-(thiazol-5-yl)-1,3,5-triazine-2,4-diamine] | < 100 nM | < 100 nM | – | –
27 | CC(C)Nc1nc(Nc2ccncc2C(F)(F)F)nc(-c2ccccc2)n1 [Compound 314, N^2-isopropyl-6-phenyl-N^4-(3-(trifluoromethyl)pyridin-4-yl)-1,3,5-triazine-2,4-diamine] | 1000 to 10000 nM | – | – | No Fit
28 | CC(C)Nc1nc(Nc2ccnc(C3CC3)c2)nc(-c2ccccc2)n1 [Compound 315, N^2-(2-cyclopropylpyridin-4-yl)-N^4-isopropyl-6-phenyl-1,3,5-triazine-2,4-diamine] | < 100 nM | < 100 nM | – | –
29 | CC(C)Nc1nc(Nc2ccc(C3CC3)nc2)nc(-c2ccccc2)n1 [Compound 316, N^2-(6-cyclopropylpyridin-3-yl)-N^4-isopropyl-6-phenyl-1,3,5-triazine-2,4-diamine] | 100 to 1000 nM | 100 to 1000 nM | – | –
30 | CS(=O)(=O)c1cccc(Nc2nc(NC3CCC3)nc(-c3ccccc3F)n2)c1 [Compound 317, N^2-cyclobutyl-6-(2-fluorophenyl)-N^4-(3-(methylsulfonyl)phenyl)-1,3,5-triazine-2,4-diamine] | < 100 nM | < 100 nM | – | –
31 | Fc1cncc(Nc2nc(NC3CCC3)nc(-c3ccccc3F)n2)c1 [Compound 318, N-Cyclobutyl-6-(2-fluoro-phenyl)-N′-(5-fluoro-pyridin-3-yl)-[1,3,5]triazine-2,4-diamine] | < 100 nM | < 100 nM | – | –
